The target in one data set is T1, β-tryptase (Homo sapiens, UniProt Q15661).
T1 construct: purchased Promega Corporation
The data set is described as follows: β-Tryptase Inhibition Test. Format: biochemical. How it is done: Sixty μL of a tris-hydrochloric acid buffer (pH 7.5, containing 200 ng/mL of heparin) was added to 20 μL of β-tryptase (manufactured by Promega Corporation) adjusted to 100 ng/mL with the same buffer. Then, 1 μL of a dimethyl sulfoxide (hereinafter, abbreviated to DMSO) solution as a test compound adjusted to a concentration 100 times as high as the final concentration was added to the mixture. After that, 20 μL of a 0.5 mM synthetic substrate Boc-Phe-Ser-Arg-MCA (manufactured by Peptide Institute, Inc) was added to the mixture, and the whole was reacted at 25° C. for 1 hour, followed by the addition of 100 μL of 20% acetic acid for stopping the reaction. Measured was fluorescence of free MCA generated by laser light with an excitation wavelength of 355 nm (fluorescent wavelength=460 nm, hereinafter abbreviated to F 460 nm).
Δ fluorescence count value (a fluorescence count value after an enzyme reaction—a fluorescence count value before the enzyme reaction) was used for a measure of an enzyme inhibition reaction of a drug, and the enzyme inhibition reaction was evaluated in terms of a suppression rate calculated by the following equation.
A=Δ F 460 nm of a mixture (control) of a substrate containing 1% DMSO and an enzyme
B=Δ F 460 nm of a mixture of a substrate containing a drug dissolved in DMSO and an enzyme
C=Δ F 460 nm of a mixture (blank) containing 1% DMSO and a substrate
Suppression rate (%)=(A−B)×100/(A−C)
The β-tryptase inhibitory activity was measured by the method described above.

The target of a further data set is T2, FXa (Homo sapiens, UniProt P00742).
T2 construct: FXa (manufactured by Enzyme Research Ltd.); purchased Enzyme Research Ltd
T2 sequence (P00742 235-488 limits assumed): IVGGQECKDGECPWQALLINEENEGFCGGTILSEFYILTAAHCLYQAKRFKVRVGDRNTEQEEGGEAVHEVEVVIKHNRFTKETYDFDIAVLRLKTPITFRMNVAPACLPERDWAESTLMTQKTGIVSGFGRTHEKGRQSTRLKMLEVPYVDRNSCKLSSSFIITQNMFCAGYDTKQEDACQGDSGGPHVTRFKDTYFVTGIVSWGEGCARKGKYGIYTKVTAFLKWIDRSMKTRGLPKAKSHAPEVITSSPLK
T2 sequence (P00742 41-179 partner limits assumed): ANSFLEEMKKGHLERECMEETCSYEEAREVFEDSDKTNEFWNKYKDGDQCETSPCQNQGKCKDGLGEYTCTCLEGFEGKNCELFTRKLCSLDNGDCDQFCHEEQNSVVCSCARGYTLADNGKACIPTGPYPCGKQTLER
The data set can be described thus: FXa Inhibition Test. Format: biochemical. The method, then:
158 μL of a 20 mM tris-hydrochloric acid buffer (pH 7.5, containing 130 mM NaCl, 3.75 mM CaCl2, and 0.1% BSA) was placed on a 96 well microplate, and 20 μL of FXa (manufactured by Enzyme Research Ltd.) adjusted to 0.1 U/mL with the buffer was added to the buffer. Then, 2 μL of a DMSO solution as a test compound adjusted to a concentration 100 times as high as the final concentration was added to the mixture, and the whole was reacted at 37° C. for 3 minutes. After that, 20 μL of an S-2222 substrate solution adjusted to 2 mM with the buffer was added to the mixture, and the whole was reacted at 37° C. for 30 minutes, followed by addition of 100 μL of 20% acetic acid for stopping the reaction. After that, OD 405 nm was measured with a microplate reader.

The next data set concerns trypsin. The data set can be described thus: Trypsin Inhibition Test. It counts as biochemical. The following applies: substrate S-2222, 37° C., 20 minutes; read-out: Enzyme Inhibition IC50 Trypsin. The method, then: Added to 158 μL of a 20 mM tris-hydrochloric acid buffer (pH 7.5, containing 130 mM NaCl, 3.75 mM CaCl2, and 0.1% BSA) was 20 μL of a trypsin solution (manufactured by Sigma, a stock solution of […] was adjusted to 100 ng/mL with 0.001 N HCl containing 0.1% BSA). After that, 2 μL of a DMSO solution as a test compound adjusted to a concentration 100 times as high as the final concentration was added to the mixture, and the whole was reacted at 37° C. for 3 minutes. Then, 20 μL of a 2 mM synthetic substrate S-2222 (manufactured by Daiichi Pure Chemicals Co., Ltd.) was added to the mixture, and the whole was reacted at 37° C. for an additional 20 minutes, followed by addition of 100 μL of 20% acetic acid for stopping the reaction. After that, absorbance at 405 nm (hereinafter, abbreviated to OD 405 nm) was measured with a microplate reader.

The mark [1] stands for this setting: substrate Boc-Phe-Ser-Arg-MCA, 25° C., 1 hour, read-out: Tryptase Inhibiting Activity IC50.
The mark [2] stands for this setting: read-out: β-tryptase inhibitory activity in terms of IC50.
Setting [3] is: read-out: FXa inhibiting activity in terms of IC50.
Setting [4] is: Enzyme Inhibition IC50 Tryptase, selectivity test, Table 7.
[5] abbreviates: substrate S-2222, 37° C., 30 minutes, read-out: Enzyme Inhibition IC50 FXa.
The mark [6] stands for this setting: Tryptase Inhibiting Activity IC50, substrate Boc-Phe-Ser-Arg-MCA, 25° C., 1 hour.
[7] abbreviates: selectivity test, Table 7, read-out: Enzyme Inhibition IC50 Tryptase.

Read-outs that look alike come from different tables or passages of the source.

T1 sequence (Q15661 31-275): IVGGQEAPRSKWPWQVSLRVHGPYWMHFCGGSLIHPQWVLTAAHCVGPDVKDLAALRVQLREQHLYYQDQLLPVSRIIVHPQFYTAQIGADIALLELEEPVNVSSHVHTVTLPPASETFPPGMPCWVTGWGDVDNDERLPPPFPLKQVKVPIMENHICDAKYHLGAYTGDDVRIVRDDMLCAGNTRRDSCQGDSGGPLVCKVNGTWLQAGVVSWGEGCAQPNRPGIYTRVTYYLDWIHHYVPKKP

As for `CN(CCCc1ccc(CN)cc1)CCNC(=O)c1nc2ccccc2s1` [Compound 77], at β-tryptase (setting [1]), the IC50 worked out at 73 nM.

In the case of `Cc1ccc2[nH]c(C(=O)NCCN(C)CCCc3ccc(CN)cc3)cc2c1` [compound 55], the half-maximal inhibitory concentration (IC50) at β-tryptase (setting [2]) was no more than 10 nM; at FXa (setting [3]) it was no less than 100 µM.

In the case of `CN(CCCc1ccc(CN)cc1)CCNC(=O)c1cc2cc(C(F)(F)F)ccc2[nH]1` [Compound 63], at β-tryptase (setting [1]), the 50% inhibitory concentration (IC50) stood at 32 nM.

As to `CN(CCCc1ccc(CN)cc1)CCNC(=O)c1ccc2cc[nH]c2c1` [compound 53], on β-tryptase (setting [2]), the 50% inhibitory concentration (IC50) was no more than 10 nM.

Regarding `CN(CCCc1ccc(CN)cc1)CCNC(=O)c1cc2cc(F)ccc2[nH]1` [Compound 62], the concentration for half-maximal inhibition (IC50) on β-tryptase (setting [1]) was found to be 14 nM.

As for `CN(CCCc1ccc(CN)cc1)CCNS(=O)(=O)c1ccc2ccccc2c1` [Compound 17], the melting point lay within 91.6 to 92 °C. The same compound had an IC50 against β-tryptase of 120 nM. For the same compound, the concentration for half-maximal inhibition (IC50) against β-tryptase (setting [4]) was determined as 120 nM. In addition, in the data set on trypsin, the 50% inhibitory concentration (IC50) is greater than 30 µM. The IC50 at FXa (setting [5]) is greater than 30 µM.

On to `CN(CCCc1ccc(CN)cc1)CCNC(=O)c1sc2ccccc2c1Cl` [Compound 49], for which, at β-tryptase (setting [1]), the IC50 amounted to 15 nM.

`NCc1ccc(CCCNCCNS(=O)(=O)c2ccc3c(c2)CCC3)cc1` [Compound 7]: the melting point lay within 199 to 199.7 °C. The same compound registered an IC50 at β-tryptase (setting [6]) of 200 nM.

Compound `NCc1ccc(CCCNCCNS(=O)(=O)c2ccc3sccc3c2)cc1` [Compound 5] returned a melting point of 264.2 to 265.4 °C. Also, half-maximal inhibition against β-tryptase (setting [6]) (IC50) was put at 210 nM.

As to `CN(CCCc1ccc(CN)cc1)CCN(C)C(=O)c1cc2cc(Cl)ccc2[nH]1` [compound 87], the IC50 on β-tryptase (setting [2]) was no more than 10 nM.

For the compound `CC(=O)c1ccc2[nH]c(C(=O)NCCN(C)CCCc3ccc(CN)cc3)cc2c1` [Compound 70], the figures for the IC50 at β-tryptase (setting [7]), with trypsin and at FXa (setting [5]) were 8 nM, greater than 100 µM and greater than 100 µM, respectively.

`CN(CCCc1ccc(CN)cc1)CCNC(=O)c1cc2cc(Cl)ccc2[nH]1` [Compound 58] showed a melting point of 166.4 to 170 °C. In addition, the IC50 on β-tryptase (setting [7]) was 6 nM. Moreover, the IC50 with trypsin was greater than 100 µM. Also, at FXa (setting [5]), the IC50 was greater than 100 µM.

For `CN(CCCc1ccc(CN)cc1)CCNC(=O)c1cc2cc(Cl)ccc2[nH]1` [compound 58], the IC50 is no more than 10 nM on β-tryptase (setting [2]) and no less than 100 µM at FXa (setting [3]).

With `CN(CCCc1ccc(CN)cc1)CCNC(=O)c1cc2ccccc2o1` [Compound 45], the half-inhibitory concentration (IC50) at β-tryptase (setting [1]) is 20 nM.

As for `NCc1ccc(CCCNCCNS(=O)(=O)c2ccc3c(c2)CNCC3)cc1` [Compound 9], the melting point fell in the range of 233.9 to 234.5 °C. At β-tryptase (setting [6]), 190 nM corresponded to half-maximal inhibition (IC50).

With `CN(CCCc1ccc(CN)cc1)CCNC(=O)c1cc2cc(OCc3ccccc3)ccc2[nH]1` [Compound 72], the half-maximal inhibitory concentration (IC50) is 15 nM on β-tryptase (setting [7]), greater than 100 µM with trypsin and greater than 100 µM on FXa (setting [5]).

`NCc1ccc(CCCNCCNS(=O)(=O)c2ccc3ccccc3c2Cl)cc1` [compound 4]: the IC50 at FXa (setting [3]) is no less than 100 µM.

As to `CN(CCCc1ccc(CN)cc1)CCNC(=O)c1cc2cc(Br)ccc2[nH]1` [compound 61], the figures for the IC50 on β-tryptase (setting [2]) and on FXa (setting [3]) were no more than 10 nM and no less than 100 µM, respectively.

Turning to `NCc1ccc(CCCNCCNS(=O)(=O)c2ccc3ccccc3c2)cc1` [Compound 1], the IC50 was 86 nM against β-tryptase, 86 nM against β-tryptase (setting [4]), greater than 100 µM in the data set on trypsin and greater than 100 µM on FXa (setting [5]).

With `CN(CCCc1ccc(CN)cc1)CCNC(=O)c1ccc2cc(Br)ccc2c1` [compound 41], the values for the IC50 on β-tryptase (setting [2]) and at FXa (setting [3]) were no more than 10 nM and no less than 100 µM, respectively.

In the case of `CN(CCCc1ccc(CN)cc1)CCNCc1cc2ccccc2s1` [Compound 91], the IC50 at β-tryptase (setting [1]) was found to be 310 nM.

For the compound `CN(CCCc1ccc(CN)cc1)CCNS(=O)(=O)c1ccc2ccccc2c1Cl` [Compound 20], the melting point fell in the range of 221.5 to 222.7 °C. Further, at β-tryptase (setting [1]), the concentration for half-maximal inhibition (IC50) was 15 nM.

With `NCc1ccc(CCCNCCNC(=O)c2ccc3ccccc3c2)cc1` [Compound 11], the melting point is 69.7 to 72.2 °C. In addition, at β-tryptase (setting [7]), the IC50 stood at 150 nM. Moreover, at β-tryptase (setting [1]), the IC50 amounted to 150 nM. Besides, the IC50 in the data set on trypsin is greater than 30 µM. Moreover, on FXa (setting [5]), the IC50 was greater than 30 µM.

Take `CN(CCCc1ccc(CN)cc1)CCNC(=O)c1c[nH]c2ccccc12` [Compound 51]: the IC50 on β-tryptase (setting [1]) is 100 nM.

In the case of `CC(=O)c1ccc2[nH]c(C(=O)NCCN(C)CCCc3ccc(CN)cc3)cc2c1` [compound 70], the IC50 on β-tryptase (setting [2]) is no more than 10 nM; at FXa (setting [3]), no less than 100 µM.

In the case of `Cc1ccc2[nH]c(C(=O)NCCN(C)CCCc3ccc(CN)cc3)cc2c1` [Compound 55], the IC50 on β-tryptase (setting [7]) was 5 nM; at β-tryptase (setting [1]) it was 5 nM; in the data set with trypsin it was greater than 100 µM; at FXa (setting [5]), greater than 100 µM.

Regarding `NCc1ccc(CCCN(CCNS(=O)(=O)c2ccc3ccccc3c2)CCC(=O)O)cc1` [Compound 33], at β-tryptase (setting [1]), the concentration for half-maximal inhibition (IC50) was 440 nM.

Consider `CN(CCCc1ccc(CN)cc1)CCNC(=O)c1ccc2c(ccn2C)c1` [Compound 73], for which, at β-tryptase (setting [1]), the half-inhibitory concentration (IC50) was 1 nM.

With `CN(CCCc1ccc(CN)cc1)CCNC(=O)c1ccc2cc[nH]c2c1` [Compound 53], on β-tryptase (setting [1]), the concentration for half-maximal inhibition (IC50) came to 5 nM.

`CN(CCCc1ccc(CN)cc1)CCNC(=O)c1cc2cc(Br)ccc2[nH]1` [Compound 61]: the IC50 at β-tryptase (setting [7]) was 6 nM; at β-tryptase (setting [1]), 6 nM; in the data set on trypsin it was greater than 100 µM; on FXa (setting [5]), greater than 100 µM.

Take `CN(CCCc1ccc(CN)cc1)CCNC(=O)c1ccc2ncsc2c1` [Compound 78]: on β-tryptase (setting [1]), the 50% inhibitory concentration (IC50) amounted to 20 nM.

In the case of `CCN(CCCc1ccc(CN)cc1)CCNS(=O)(=O)c1ccc2ccccc2c1` [Compound 18], the IC50 at β-tryptase (setting [1]) was 140 nM.

In the case of `CN(CCCc1ccc(CN)cc1)CCNC(=O)c1ccc2c(ccn2C)c1` [compound 73], the concentration for half-maximal inhibition (IC50) on β-tryptase (setting [2]) was no more than 10 nM.

Consider `CN(CCCc1ccc(CN)s1)CCNC(=O)c1cc2ccccc2s1` [Compound 90], for which the concentration for half-maximal inhibition (IC50) on β-tryptase (setting [1]) turned out to be 200 nM.

On to `CN(CCCc1ccc(CN)cc1)CCN(C)C(=O)c1cc2cc(Cl)ccc2[nH]1` [Compound 87], for which the melting point was 190.2 to 191.4 °C. For the same compound, the IC50 at β-tryptase (setting [1]) came out at 1 nM.

Regarding `NCc1ccc(CCCNCCNC(=O)c2ccc3ncccc3c2)cc1` [Compound 13], the melting point fell in the range of 269.5 to 271.2 °C. Further, the IC50 on β-tryptase (setting [1]) amounted to 190 nM.

Turning to `CN(CCCc1ccc(CN)cc1)CCNC(=O)c1ccc2occc2c1` [Compound 46], the IC50 at β-tryptase (setting [1]) worked out at 64 nM.

On to `NCc1ccc(CCCNCCNS(=O)(=O)c2ccc3ccccc3c2Cl)cc1` [Compound 4], for which the melting point lay within 264.3 to 265.6 °C. Further, the concentration for half-maximal inhibition (IC50) in the data set on trypsin is greater than 100 µM. Also, at FXa (setting [5]), the 50% inhibitory concentration (IC50) was greater than 100 µM.

For the compound `CN(CCCc1ccc(CN)cc1)CCNC(=O)c1cc2cc(C(=O)O)ccc2[nH]1` [Compound 69], the IC50 on β-tryptase (setting [1]) turned out to be 55 nM.

For `CN(CCCc1ccc(CN)nc1)CCNC(=O)c1ccc2[nH]ccc2c1` [Compound 89], the IC50 at β-tryptase (setting [1]) stood at 140 nM.

As to `CN(CCCc1ccc(CN)cc1)CCNC(=O)c1ccc2cc(Br)ccc2c1` [Compound 41], the 50% inhibitory concentration (IC50) at β-tryptase (setting [7]) was 8 nM; in the data set on trypsin, greater than 100 µM; on FXa (setting [5]) it was greater than 100 µM.

The record behind these values is US20050043304A1, “Novel amine derivative having human beta-tryptase inhibitory activity and drugs containing the same” (priority 2001, published 2005).
